Some test systems named below: MOLT-4 leukemia; NCI/ADR-RES ovarian; HT29 colon; OVCAR-5 ovarian; CAKI-1 renal; COLO 205 colon; SNB-19 CNS; MDA-N; HS 578T breast; K-562 leukemia; NCI-H460 lung.
Common to all, as to experiment: NCI anticancer screen, dose series, 48 h

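Assay format: 96-well plates, 48-hour exposure. The concentration for full growth arrest is given as TGI.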 Where a SMILES comes first, the peptide text is derived from it. The star is where a group is joined. Boc = CC(C)(C)OC(=O)*; OtBu = CC(C)(C)O* Some results are limits rather than exact numbers.

On to `CC(C)c1cc(C(C)C)c(S(=O)(=O)N/N=C2\CC3CCC2(C)C3(C)C)c(C(C)C)c1` (configuration not stated), for which the TGI in the assay with MOLT-4 leukemia was 40 µM; with NCI/ADR-RES ovarian, greater than 100 µM; in the assay on HT29 colon, 43.8 µM; in the assay on OVCAR-5 ovarian, greater than 100 µM; in the assay on CAKI-1 renal, greater than 100 µM; in the assay with COLO 205 colon, 79.3 µM. Further, the TGI in the assay on SNB-19 CNS is greater than 100 µM; in the assay on MDA-N, 64.8 µM; with HS 578T breast, greater than 100 µM; with K-562 leukemia it was greater than 100 µM.
On to `COc1ccc(CCN2C(=O)C(=O)C(C(=O)c3ccccc3)C2c2ccccc2)cc1OC` (configuration not stated), for which the TGI with NCI-H460 lung, with MOLT-4 leukemia, with NCI/ADR-RES ovarian, in the assay with HT29 colon, with OVCAR-5 ovarian and with CAKI-1 renal was greater than 100 µM each time. The TGI with COLO 205 colon, with SNB-19 CNS, with MDA-N, in the assay on HS 578T breast and in the assay on K-562 leukemia was greater than 100 µM each time.
For the molecule `Nc1ccc(Oc2ccc(C3(c4ccc(Oc5ccc(N)c(O)c5)cc4)C4CC5CC(C4)CC3C5)cc2)cc1O`, the TGI turned out to be 4.08 µM in the assay on MOLT-4 leukemia; 5.91 µM in the assay on NCI/ADR-RES ovarian; 4.4 µM with HT29 colon; 5.75 µM in the assay with OVCAR-5 ovarian; 5.03 µM in the assay on CAKI-1 renal; 1.72 µM with COLO 205 colon. Besides, the TGI turned out to be 7.6 µM in the assay on SNB-19 CNS, 4.75 µM in the assay with MDA-N, 5.32 µM with HS 578T breast and 5.56 µM in the assay on K-562 leukemia.
For `COc1cccc(O)c1-c1cc(=O)c2c(O)c(OC)c(OC)c(OC)c2o1`, the TGI with NCI-H460 lung was 52.1 µM; in the assay on MOLT-4 leukemia it was 97.7 µM; in the assay with NCI/ADR-RES ovarian, 71.7 µM; with HT29 colon it was 91 µM; with OVCAR-5 ovarian, greater than 100 µM; in the assay with CAKI-1 renal, greater than 100 µM. Also, the TGI with COLO 205 colon is 39.1 µM; in the assay with SNB-19 CNS, greater than 100 µM; with MDA-N it was 49.2 µM; in the assay on HS 578T breast, greater than 100 µM; in the assay on K-562 leukemia, greater than 100 µM.
Regarding `COC(=O)[C@]1(CCC(C)=O)C(=O)C=CN([C@H](C)c2ccccc2)[C@@H]1Cc1ccc(OC)c(OCc2ccccc2)c1I`, the TGI in the assay with NCI-H460 lung is 30.7 µM; with MOLT-4 leukemia it was greater than 100 µM; in the assay with NCI/ADR-RES ovarian it was 62.8 µM; with HT29 colon, 31.8 µM; in the assay on OVCAR-5 ovarian it was 63.8 µM; in the assay on CAKI-1 renal, greater than 100 µM. Besides, the TGI in the assay on COLO 205 colon is 47.7 µM; with SNB-19 CNS, 81.8 µM; in the assay with MDA-N, 41.3 µM; in the assay on HS 578T breast, 79.4 µM; in the assay on K-562 leukemia, greater than 100 µM.
For the molecule `COC1=C(OC)C(=O)c2cc(C)c(=O)c(C)cc2C1=O`, the TGI with NCI-H460 lung was 48.5 µM; in the assay on MOLT-4 leukemia it was 15.6 µM; in the assay with NCI/ADR-RES ovarian, 39.4 µM; in the assay with HT29 colon it was 50.5 µM; in the assay with OVCAR-5 ovarian, 47.6 µM; in the assay on CAKI-1 renal it was 31.7 µM. In addition, the TGI is 34.7 µM in the assay on COLO 205 colon; 37.6 µM in the assay with SNB-19 CNS; 6.84 µM in the assay on MDA-N; 63.8 µM with HS 578T breast; greater than 24 µM in the assay with K-562 leukemia.
For `Cc1nnc(NS(=O)(=O)c2ccc(N=Nc3c(O)c(C(=O)O)cc4ccccc34)cc2)s1`, the TGI in the assay on NCI-H460 lung, in the assay with MOLT-4 leukemia, in the assay with NCI/ADR-RES ovarian, in the assay with HT29 colon, with OVCAR-5 ovarian and in the assay on CAKI-1 renal was greater than 100 µM in each case. The TGI in the assay on COLO 205 colon, in the assay with SNB-19 CNS, with MDA-N, with HS 578T breast and in the assay on K-562 leukemia was greater than 100 µM each time.
Consider `CCOC(=O)c1sc(N)nc1N1CCCC1`, for which the TGI in the assay with NCI-H460 lung, with MOLT-4 leukemia, in the assay with NCI/ADR-RES ovarian, with HT29 colon, in the assay with OVCAR-5 ovarian and with CAKI-1 renal was greater than 100 µM in each case. In addition, the TGI in the assay on COLO 205 colon, in the assay with SNB-19 CNS, in the assay with MDA-N, in the assay on HS 578T breast and in the assay with K-562 leukemia was greater than 100 µM in each case.
With `CC(C)(C)OC(=O)CC(NC(=O)OC(C)(C)C)C(=O)NC(Cc1ccccc1)C(N)=O` (configuration not stated) (Boc-Asp(OtBu)-Phe-NH2; configuration not given here), the TGI in the assay on NCI-H460 lung, in the assay with NCI/ADR-RES ovarian, with HT29 colon, in the assay with OVCAR-5 ovarian, with CAKI-1 renal and in the assay on COLO 205 colon was greater than 100 µM in each case. The TGI with SNB-19 CNS, in the assay on MDA-N, in the assay on HS 578T breast and with K-562 leukemia was greater than 100 µM throughout.
With `COC(=O)c1c(C(=O)OC)c2ccccn2c1-c1cc(C)cc2c1C(=O)C=CC2=O`, the TGI amounted to 3.76 µM in the assay on MOLT-4 leukemia; 27.8 µM in the assay on NCI/ADR-RES ovarian; 16.6 µM in the assay with HT29 colon; 16.9 µM with OVCAR-5 ovarian; 12.4 µM with CAKI-1 renal; 13.4 µM in the assay on COLO 205 colon. Further, the TGI in the assay with SNB-19 CNS turned out to be 18.6 µM; in the assay on MDA-N, 15.3 µM; with HS 578T breast, 24.2 µM; in the assay with K-562 leukemia, 7.63 µM.
Turning to `CCOC(=O)n1c(=O)nc2c3c(ncn21)Oc1c(c(-c2ccccc2)nn1-c1ccccc1)C3c1ccc(Cl)cc1` (configuration not stated), the TGI in the assay with NCI-H460 lung was 3.21 µM; in the assay with NCI/ADR-RES ovarian, 3.11 µM; in the assay on HT29 colon, 3.12 µM; in the assay on OVCAR-5 ovarian, 3.53 µM; with CAKI-1 renal it was 2.96 µM; with COLO 205 colon, 2.59 µM. Moreover, the TGI in the assay with SNB-19 CNS turned out to be 2.95 µM; with MDA-N, 3.01 µM; in the assay with HS 578T breast, 3.37 µM; in the assay with K-562 leukemia it was 2.41 µM.
For the molecule `NC(C(=O)O)C(O)c1cnc[nH]1` (configuration not stated), the TGI in the assay on NCI-H460 lung, in the assay with MOLT-4 leukemia, in the assay with NCI/ADR-RES ovarian, with HT29 colon, in the assay on OVCAR-5 ovarian and with CAKI-1 renal was greater than 100 µM each time. Moreover, the TGI with COLO 205 colon, with SNB-19 CNS, in the assay on MDA-N, with HS 578T breast and in the assay on K-562 leukemia was greater than 100 µM in each case.

The record behind these values is PubChem BioAssay (NCI).
